Data taken from PMC6784244 (Toxins, 2019).
In brackets after ≈: the same amount, converted by molar mass. Several values for one entry are separate records, joined by “and”; a condition that tells them apart may be missing. Equal entries are not always repeated.

Assays:
[1] = lipid monolayer at air-water interface on PBS pH 7.4, peptide 1 µM, initial pressure 10-30 mN/m, extrapolated to delta pressure 0
Description: (§1) Peptide–lipid interaction was evaluated using reconstituted lipid monolayer at the air–water interface as previously described. Pure prokaryotic and eukaryotic lipids used were: POPC (1-palmitoyl-2-oleoyl-glycero-3-phosphocholine), POPE (1-palmitoyl-2-oleoyl-sn-glycero-3-phosphoethanolamine), POPG (1-palmitoyl-2-oleoyl-sn-glycero-3-phospho-(1’-rac-glycerol), and cardiolipin, all from Avanti Polar Lipid (Alabama, USA). LTA (Lipoteichoic acid from B. subtilis) was obtained from Invivogen SAS (Toulouse, France). Pure lipids were reconstituted in chloroform:methanol (2:1, v:v) at 1 mg/mL and stored at −20 °C under nitrogen. The interaction and insertion of the ENN and BEA into lipids were evaluated through the measurement of their critical pressure of insertion as previously described. Briefly, lipids were spread using a 50 µL Hamilton’s syringe at the surface of 800 µL of sterile PBS creating a lipid monolayer at the air–water interface. Lipids were added until the surface pressure reached the desired value. After 5–10 min of incubation allowing evaporation of the solvent and stabilization of the initial surface pressure, 8 µL of ENN or BEA diluted in sterile PBS at 100 µM were injected into the 800 µL sub-phase of PBS under the lipid monolayer (pH 7.4, volume 800 µL) using a 10 µL Hamilton syringe giving a final concentration of peptides of 1 µM, preliminary experiments having shown that this concentration gave optimal insertion. The variation of the surface pressure caused by peptide injection was then continuously monitored using a fully automated microtensiometer (µTROUGH SX, Kibron Inc., Helsinki, Finland) until reaching equilibrium (maximal surface pressure increase being usually obtained after 15–25 min). The critical pressure of insertion of each peptide was determined by changing the initial pressure of lipid monolayer (from 10 and 30 mN/m) and measuring the variation of pressure caused by the insertion of the peptide. The critical pressure of insertion of each peptide in a particular lipid was determined graphically and calculated as the theoretical value of initial pressure of lipid monolayer not permissive to peptide insertion, i.e., causing a variation of pressure equal to 0 mN/m.

[2] = lipid monolayer on PBS pH 7.4, peptide 1 µM, extrapolated to delta pressure 0; -- = absence of interaction
Description: as §1

C. perfringens [3] = format: cell-based, Clostridium perfringens
C. perfringens [4] = format: cell-based, Clostridium perfringens; remark: listed apart in the source
[5] = system: Bacillus subtilis (ATCC 6633)
[6] = system: Nisin-resistant B. subtilis (DSMZ 347)
[7] = system: Clostridium perfringens (ATCC 13124)
[8] = system: Vancomycin-resistant Enterococcus faecalis (DSMZ 13591)
[9] = system: Staphylococcus aureus (ATCC CRM-6538P)
[10] = system: Methicillin-resistant S. aureus strain MRSA USA300
[11] = system: Acinetobacter baumannii (CIP 110431)
[12] = system: Escherichia coli (ATCC 8739)
[13] = system: Helicobacter pylori (ATCC 43504)
[14] = system: Pseudomonas aeruginosa (ATCC CRM-9027)
[15] = system: Mycobacterium smegmatis (mc2155, ATCC 700084); details: mc2155, 72 h
[16] = system: Aspergillus flavus (DSMZ 1959); details: DSMZ 1959, pH 7
A. niger (ATCC 9142) = details: ATCC 9142, pH 7
A. ochraceus (DSMZ 824) = details: DSMZ 824, pH 7
[17] = system: Candida albicans (DSMZ 10697); details: DSMZ 10697, 24 h, pH 7
[18] = system: Fusarium graminearum (DSMZ 1095); details: DSMZ 1095, pH 7
[19] = system: F. oxysporum (DSMZ 62316); details: DSMZ 62316, pH 7
[20] = system: F. verticillioides (DSMZ 62264); details: DSMZ 62264, pH 7
[21] = system: Penicillium verrucosum (DSMZ 12639); details: DSMZ 12639, pH 7
[22] = system: Stachybotrys chartarum (DSMZ 2144); details: DSMZ 2144, pH 7
human erythrocytes = details: pH 7.4
[23] = system: HEK (human normal epidermal keratinocytes); details: 48 h
[24] = system: N87 (human gastric cell line); details: 48 h

## CC(C)[C@H]1C(=O)O[C@H](C(C)C)C(=O)N(C)[C@@H](C(C)C)C(=O)O[C@H](C(C)C)C(=O)N(C)[C@@H](C(C)C)C(=O)O[C@H](C(C)C)C(=O)N1C [ENN B]
[1]
  critical pressure of insertion, POPC: 32.92 mN/m
  critical pressure of insertion, POPE: 30.15 mN/m
[2]
  critical pressure of insertion, POPG: 34.67 mN/m
C. perfringens [3]
  membrane depolarization at 100 µM: 44.9 ± 8.7%
  membrane depolarization at four times their MIC: 44.2 ±1.8%
  membrane depolarization at their MIC: 36.4 ± 3.8% and 30–40%
C. perfringens [4]
  Known/possible target: Protein biosynthesis
  Observed Morphology: • Some cell elongation (1.5–2 times compared to control) • DNA condensed in 1–4 circles per cells
[5]
  MIC, B. subtilis: >100 µM
[6]
  MIC, B. subtilis NR: >100 µM
[7]
  MIC, C. perfringens: 12.5 µM (≈ 8 µg/mL)
[8]
  MIC, E. faecalis: >100 µM
[9]
  MIC, S. aureus: >100 µM
[10]
  MIC, S. aureus MRSA: >100 µM
[11]
  MIC, A. baumannii: >100 µM
[12]
  MIC, E. coli: >100 µM
[13]
  MIC, H. pylori: >100 µM
[14]
  MIC, P. aeruginosa: >100 µM
[15]
  MIC, M. smegmatis: 100 µM (≈ 64 µg/mL)
[16]
  MIC, A. flavus: >100 µM
A. niger (ATCC 9142)
  MIC, A. niger: >100 µM
A. ochraceus (DSMZ 824)
  MIC, A. ochraceus: >100 µM
[17]
  MIC, C. albicans: 6.25 µM (≈ 4 µg/mL)
[18]
  MIC, F. graminearum: >100 µM
[19]
  MIC, F. oxysporum: >100 µM
[20]
  MIC, F. verticillioides: >100 µM
[21]
  MIC, P. verrucosum: >100 µM
[22]
  MIC, S. chartarum: >100 µM
Human erythrocytes
  HC50 (dose causing 50% hemolysis), Erythrocytes: 534.5 µM
[23]
  IC50: 54.2 ± 35.3 µM
[24]
  IC50: 1.7 ± 0.1 µM
